{"source": "patent US20070148262A1", "about": "(priority 2005, published 2007)", "key": {"Salmonella cholerasuis": {"test_system": "Salmonella cholerasuis", "experiment": "comparison of antibacterial effects: Green-zone A vs malic acid and grapefruit seed extract", "type": "cell-based", "parameters": "key: NBD: No Bacteria Detected; BD: Bacteria Detected", "conditions": "5% organic matter dilution (yeast extract, hard water)", "experimental": "The antibacterial effect of Green-zone A prepared in Example 1 was compared to the effect of each of malic acid and grapefruit seed extract alone.\nA bacterial strain used in the test of antibacterial activity was Salmonella cholerasuis. The Salmonella strain was cultured in nutrient medium at 37° C. for 24 hours and used at a concentration of 5×10^8 cells/ml of the nutrient medium.\nGreen-zone A prepared in Example 1 was undiluted and diluted 2-fold and 5-fold with hard water. Meanwhile, a composition of 50 g malic acid completely dissolved in 200 ml of purified water, and a composition of 6 g grapefruit seed extract completely dissolved in 200 ml of distilled water, were undiluted and diluted 2-fold and 5-fold.\n4 ml of the prepared Salmonella strain was mixed with 96 ml of 5% organic matter dilution (4° C., 5% yeast extract, pH 7.0, diluted with hard water). 2.5 ml of the mixture solution was taken and allowed to react at 4° C. for 30 minutes.\nAfter completion of the reaction, 1 ml of the bacterial dilution was added and mixed with 9 ml of neutralizing medium (containing 5% horse serum inactivated in nutrient medium) at 37° C. Then, the mixture was added into test tubes containing 0.1 ml of each of nutrient media, and was proliferated in an incubator at 37° C. for 48 hours.\nAfter completion of the proliferation, the […] was re-inoculated into blood medium and measured for the bactericidal activity of each of the compositions (Table 15)."}, "[1]": {"test_system": "avian influenza viruses (AIV) (field isolate No. 02-8, virus strain K228)", "type": "cell-based"}}}
{"smiles": "O=C(O)CC(O)C(=O)O", "note": "(stereo not shown) [Malic acid, malic acid]", "values": [{"measurement": "bactericidal activity", "setting": "Salmonella cholerasuis; Original solution", "value": "NBD"}, {"measurement": "bactericidal activity", "setting": "Salmonella cholerasuis; dilution 1:2", "value": "BD"}, {"measurement": "bactericidal activity", "setting": "Salmonella cholerasuis; dilution 1:5", "value": "BD"}, {"measurement": "disinfectant effects up to dilutions of", "setting": "[1]", "value": "no disinfectant effects"}]}
